Experiments:
[1] = system: inducible nitric oxide synthase (iNOS), BV-2 microglia; experiment: Nitric oxide production in LPS-activated BV-2 microglia (Griess reaction); format: cell-based; conditions: Mus musculus, LPS 4 μg/mL, 16 hours, read-out: IC50, inhibition of nitric oxide production
Method: BV-2 microglia were grown in 6-well tissue culture plates in DMEM/F12 media supplemented with 10% fetal calf serum. Prior to activation, cells were given fresh media containing various amounts of thiazolidinone. One hour after drug treatment, microglia were activated with lipopolysaccharide (LPS, 4 μg/mL) and placed in an incubator at 37° C. in an atmosphere containing 5% CO2. After 16 hours, cultures were evaluated for inducible nitric oxide synthase (iNOS) activity and expression. iNOS activity was determined using the Griess reaction. Cell-free culture media was mixed with an equal volume of Griess reagent (one volume of 1.0% sulfanilamide in 5% phosphoric acid mixed with one volume of 0.1% naphthylenediamine dihydrochloride in water) and incubated for 5 minutes at room temperature. Absorbance was measured at 560 nm and the concentration within a sample was determined using sodium nitrite as standard. iNOS expression was evaluated by extracting cellular protein and performing Western blot analysis using a monoclonal antibody specific for iNOS.

[2] = system: canine leptomeningeal smooth muscle cells; experiment: Amyloid β-peptide-induced cytotoxicity in canine leptomeningeal smooth muscle cells; format: cell-based, dog
Text: Canine smooth muscle cells were isolated from freshly obtained old dog meninges. […] Old dogs have an angiopathy resembling the human condition. Smooth muscle cells are the site of cerebral vessel myopathy occurring in the Dutch form of Alzheimer's disease. The compromise of these cells ultimately leads to a cerebrovascular accident and the death of some humans.
Cells from the meninges were dissociated and kept in culture in 10% fetal calf serum and Dulbecco's minimal essential media with antibiotics for about 1 week on tissue culture plates before use in biochemical studies or transferal to uncoated microscope slides for morphological studies. These smooth muscle cells represent brain blood vessel cells and they can be passaged several times. For inducing cytotoxicity, the cells were treated, in serum-free media, with 10 to 20 μM of amyloid β-peptide that was 42 amino acids long. This peptide corresponds to the human β-peptide sequence. The peptide was dissolved in water immediately before use. This small amount of protein is believed to approximate the concentration of protein observed in postmortem samples in the brains of people who died with Alzheimer's dementia.
Percentages were determined by counting normal and apoptotic nuclei in three fields with five independent measures in a fluorescence microscope.

[3] = 13-week toxicity study in monkeys; format: in vivo, monkey
Method: As noted above, the thiazolidinone is additionally well-suited to treating elderly patients because of its long duration of action and its substantial lack of undesirable side effects. Toxicologic properties of the thiazolidinone were evaluated in single-dose oral and intravenous (IV) studies in mice and rats and multidose oral studies in rats and dogs. The thiazolidinone was tested in dogs and monkeys in escalating-dose oral toxicity to determine the most sensitive nonrodent species. […] The initial 13-week dog study was repeated to evaluate the reproducibility of the perivascular effects. Dose range-finding studies were performed in pregnant rats and rabbits, and genotoxic potential was assessed in vitro and in vivo. […] Based on exposure at the no-effect dose in definitive studies, the rat appears to be the most sensitive species followed by the dog and the monkey, albeit with minor differences in exposure between the species.

CC(C)(C)c1cc(/C=C2\SC(N)=NC2=O)cc(C(C)(C)C)c1O [CI-1004, (Z)-5-[[3,5-bis(1,1-dimethylethyl)-4-hydroxyphenyl]methylene]-2-imino-4-thiazolidinone methanesulfonate]
IC50 [1]: 2.4 µM | amyloid accumulation over the cells [2]: amyloid accumulation over the cells was reduced | cell death induced by amyloid ([2]; 20-30 μM in 5% DMSO/water v/v): significantly decrease the cell death induced by the amyloid | ileo-cecal erosions ([3]; 13-week study, not attributed to drug): Superficial ileo-cecal erosions identified microscopically were observed | NSAID-related changes ([3]; 13 weeks): No typical NSAID-related changes were observed
